According to PubChem BioAssay (NCI):
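1) Cells in 96-well plates. 2) Compound, 48 h, 5 concentrations. 3) Linear interpolation between surrounding doses. 4) Unreached endpoint = highest concentration. Here, GI50 denotes the concentration required for 50% inhibition of growth. The concentration for full growth arrest is given as TGI.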

What was measured:
Test in all cases: DTP human tumour cell line panel, 48 h
HOP-92 NSCLC = tested on: HOP-92 NSCLC
T-47D breast = tested on: T-47D breast
CAKI-1 renal = tested on: CAKI-1 renal
PC-3 prostate = tested on: PC-3 prostate
KM12 colon = tested on: KM12 colon
HT29 colon = tested on: HT29 colon
MOLT-4 leukemia = tested on: MOLT-4 leukemia
SF-268 CNS = tested on: SF-268 CNS
HL-60(TB) leukemia = tested on: HL-60(TB) leukemia
RPMI-8226 leukemia = tested on: RPMI-8226 leukemia
NCI-H23 lung = tested on: NCI-H23 lung
A549 NSCLC = tested on: A549 NSCLC
OVCAR-8 ovarian = tested on: OVCAR-8 ovarian
BT-549 breast = tested on: BT-549 breast
SK-MEL-2 melanoma = tested on: SK-MEL-2 melanoma
SF-539 CNS = tested on: SF-539 CNS
SW-620 colon = tested on: SW-620 colon
UACC-62 melanoma = tested on: UACC-62 melanoma
RXF 393 renal = tested on: RXF 393 renal
K-562 leukemia = tested on: K-562 leukemia
A498 renal = tested on: A498 renal
NCI-H522 lung = tested on: NCI-H522 lung
SR leukemia = tested on: SR leukemia
UO-31 renal = tested on: UO-31 renal
SK-MEL-5 melanoma = tested on: SK-MEL-5 melanoma
ACHN renal = tested on: ACHN renal
HCT-116 colon = tested on: HCT-116 colon
NCI-H226 lung = tested on: NCI-H226 lung
SNB-19 CNS = tested on: SNB-19 CNS
HS 578T breast = tested on: HS 578T breast
LOX IMVI melanoma = tested on: LOX IMVI melanoma
M14 melanoma = tested on: M14 melanoma
NCI-H460 lung = tested on: NCI-H460 lung
U251 CNS = tested on: U251 CNS
TK-10 renal = tested on: TK-10 renal
DU-145 prostate = tested on: DU-145 prostate
OVCAR-4 ovarian = tested on: OVCAR-4 ovarian
MDA-MB-435 = tested on: MDA-MB-435
IGROV1 ovarian = tested on: IGROV1 ovarian
MALME-3M melanoma = tested on: MALME-3M melanoma
SK-MEL-28 melanoma = tested on: SK-MEL-28 melanoma
COLO 205 colon = tested on: COLO 205 colon
786-0 renal = tested on: 786-0 renal
EKVX NSCLC = tested on: EKVX NSCLC
CCRF-CEM leukemia = tested on: CCRF-CEM leukemia
SNB-75 CNS = tested on: SNB-75 CNS
OVCAR-5 ovarian = tested on: OVCAR-5 ovarian
HOP-62 NSCLC = tested on: HOP-62 NSCLC
NCI/ADR-RES ovarian = tested on: NCI/ADR-RES ovarian
SF-295 CNS = tested on: SF-295 CNS
OVCAR-3 ovarian = tested on: OVCAR-3 ovarian
MDA-MB-231 breast = tested on: MDA-MB-231 breast
HCT-15 colon = tested on: HCT-15 colon
MCF7 breast = tested on: MCF7 breast
UACC-257 melanoma = tested on: UACC-257 melanoma
SK-OV-3 ovarian = tested on: SK-OV-3 ovarian
SN12C renal = tested on: SN12C renal

CC[C@H]1CCC/C=C/[C@@H]2C[C@H](O)C[C@H]2[C@H](O)/C=C/C(=O)O1
GI50 (HOP-92 NSCLC): 0.157 µM
TGI (HOP-92 NSCLC): > 100 µM
GI50 (T-47D breast): 0.0636 µM
TGI (T-47D breast): 0.263 µM
GI50 (CAKI-1 renal): 0.0444 µM
TGI (CAKI-1 renal): > 100 µM
GI50 (PC-3 prostate): 0.0517 µM
TGI (PC-3 prostate): > 100 µM
GI50 (KM12 colon): 0.0227 µM
TGI (KM12 colon): 0.0523 µM
GI50 (HT29 colon): 0.0264 µM
TGI (HT29 colon): 0.405 µM
GI50 (MOLT-4 leukemia): 0.0354 µM
TGI (MOLT-4 leukemia): > 100 µM
GI50 (SF-268 CNS): 0.0403 µM
TGI (SF-268 CNS): > 100 µM
GI50 (HL-60(TB) leukemia): 0.0669 µM
TGI (HL-60(TB) leukemia): 0.473 µM
GI50 (RPMI-8226 leukemia): 0.0387 µM
TGI (RPMI-8226 leukemia): 12.5 µM
GI50 (NCI-H23 lung): 0.0414 µM
TGI (NCI-H23 lung): 5.23 µM
GI50 (A549 NSCLC): 0.0434 µM
TGI (A549 NSCLC): > 100 µM
GI50 (OVCAR-8 ovarian): 0.0432 µM
TGI (OVCAR-8 ovarian): > 100 µM
GI50 (BT-549 breast): 0.0549 µM
TGI (BT-549 breast): > 100 µM
GI50 (SK-MEL-2 melanoma): 0.0337 µM
TGI (SK-MEL-2 melanoma): 0.198 µM
GI50 (SF-539 CNS): 0.06 µM
TGI (SF-539 CNS): > 100 µM
GI50 (SW-620 colon): 0.0313 µM
TGI (SW-620 colon): 0.517 µM
GI50 (UACC-62 melanoma): 0.0384 µM
TGI (UACC-62 melanoma): > 37.7 µM
GI50 (RXF 393 renal): 0.016 µM
TGI (RXF 393 renal): 0.0379 µM
GI50 (K-562 leukemia): 0.125 µM
TGI (K-562 leukemia): > 100 µM
GI50 (A498 renal): 0.0174 µM
TGI (A498 renal): 0.0596 µM
GI50 (NCI-H522 lung): 0.211 µM
TGI (NCI-H522 lung): 0.634 µM
GI50 (SR leukemia): 0.0292 µM
TGI (SR leukemia): 0.115 µM
GI50 (UO-31 renal): 0.0267 µM
TGI (UO-31 renal): > 37.2 µM
GI50 (SK-MEL-5 melanoma): 0.0166 µM
TGI (SK-MEL-5 melanoma): 0.0328 µM
GI50 (ACHN renal): 0.0443 µM
TGI (ACHN renal): > 100 µM
GI50 (HCT-116 colon): 0.0328 µM
TGI (HCT-116 colon): 0.119 µM
GI50 (NCI-H226 lung): 0.0197 µM
TGI (NCI-H226 lung): 0.0424 µM
GI50 (SNB-19 CNS): 0.0607 µM
TGI (SNB-19 CNS): > 100 µM
TGI (HS 578T breast): > 100 µM
GI50 (LOX IMVI melanoma): 0.0251 µM
TGI (LOX IMVI melanoma): 0.0793 µM
GI50 (M14 melanoma): 0.0376 µM
TGI (M14 melanoma): > 100 µM
GI50 (NCI-H460 lung): 0.107 µM
TGI (NCI-H460 lung): > 100 µM
GI50 (U251 CNS): 0.0443 µM
TGI (U251 CNS): > 100 µM
GI50 (TK-10 renal): 0.0355 µM
TGI (TK-10 renal): 0.568 µM
GI50 (DU-145 prostate): 0.179 µM
TGI (DU-145 prostate): > 100 µM
GI50 (OVCAR-4 ovarian): 0.0361 µM
GI50 (MDA-MB-435): 0.0434 µM
TGI (MDA-MB-435): > 100 µM
GI50 (IGROV1 ovarian): 0.152 µM
TGI (IGROV1 ovarian): > 100 µM
GI50 (MALME-3M melanoma): 0.0381 µM
GI50 (SK-MEL-28 melanoma): 0.0219 µM
TGI (SK-MEL-28 melanoma): 0.134 µM
GI50 (COLO 205 colon): 0.0213 µM
TGI (COLO 205 colon): 0.0395 µM
GI50 (786-0 renal): 0.0204 µM
TGI (786-0 renal): 0.042 µM
GI50 (EKVX NSCLC): 0.0522 µM
TGI (EKVX NSCLC): > 100 µM
GI50 (CCRF-CEM leukemia): 0.0455 µM
TGI (CCRF-CEM leukemia): > 100 µM
GI50 (SNB-75 CNS): < 0.0119 µM
TGI (SNB-75 CNS): > 100 µM
GI50 (OVCAR-5 ovarian): 0.0464 µM
TGI (OVCAR-5 ovarian): > 100 µM
GI50 (HOP-62 NSCLC): 0.0809 µM
GI50 (NCI/ADR-RES ovarian): 0.0379 µM
TGI (NCI/ADR-RES ovarian): > 45.3 µM
GI50 (SF-295 CNS): 0.0545 µM
TGI (SF-295 CNS): > 100 µM
GI50 (OVCAR-3 ovarian): 0.0281 µM
TGI (OVCAR-3 ovarian): 0.104 µM
GI50 (MDA-MB-231 breast): 0.0213 µM
TGI (MDA-MB-231 breast): 0.0416 µM
GI50 (HCT-15 colon): 0.0446 µM
GI50 (MCF7 breast): 0.0266 µM
TGI (MCF7 breast): 0.102 µM
GI50 (UACC-257 melanoma): 0.0802 µM
TGI (UACC-257 melanoma): > 100 µM
GI50 (SK-OV-3 ovarian): 0.0476 µM
GI50 (SN12C renal): 0.053 µM
TGI (SN12C renal): > 100 µM
